Reference: patent US20250241894A1, “TREATMENT OF MENTAL DISORDERS” (GH RESEARCH IRELAND LIMITED, priority 2022, published 2025)

Key:
[1] = tested on: patients with treatment-resistant major depressive disorder (TRD); test: Phase 1/2 clinical trial of inhaled 5-MeO-DMT in TRD: Part A single dose 12 mg or 18 mg; Part B individualized dosing regimen (IDR) 6, 12, 18 mg in a single day
Procedure: Patients were assigned to different groups. In the context of the present invention, the group who received a single, 12 mg dose and the group who underwent an intra-day individualized dosing regimen (IDR) that allowed for multiple, escalating doses (6 mg, 12 mg and 18 mg) within a single day, driven by the intensity of the patient-reported psychedelic experience are of interest.
This trial was designed in two parts. Part A was an open-label, single-arm, single-dose Phase 1 trial with two dose levels (12 mg (n=4) and 18 mg (n=4)). […] The primary endpoint of Part B was to assess the effects on the severity of depression, as assessed by the proportion of patients in remission on day seven after dosing, defined as a MADRS total score of less than or equal to 10.

[2] = Pharmacokinetics of 5-MeO-DMT and bufotenine after a single inhaled dose; assay type: in vivo, human
Procedure: Blood samples were obtained at 1; 2; 4; 7; 10; 15; 20; 30; 45 min and 1; 1.5; 2; 3; 4 hours after administration.
PK parameters were generated by algebraic analysis of the concentration versus time plots for each individual. The analysis was carried out using the software Phoenix WinNonlin 6.3.

[3] = 12 mg n=4, 2 hours, baseline 16

COc1ccc2[nH]cc(CCN(C)C)c2c1 [5-MeO-DMT]
MADRS Suicidal Thoughts improvement ([1]; 12 mg n=4, 2 hours, baseline 8): 5 points
MADRS Inner Tension improvement ([1]; 12 mg n=4, 2 hours, baseline 13): 11 points
MADRS Concentration Difficulties improvement [1, 3]: 9 points
MADRS Inability to Feel improvement [1, 3]: 7 points
MADRS Lassitude improvement [1, 3]: 6 points
MADRS Pessimistic Thoughts improvement [1, 3]: 8 points
BPRS Blunted Affect improvement ([1]; 12 mg n=4, 3 hours, baseline 11): 3 points
BPRS Emotional Withdrawal improvement ([1]; 12 mg n=4, 3 hours, baseline 13): 2 points
BPRS Tension improvement ([1]; 12 mg n=4, 3 hours, baseline 14): 5 points
BPRS Guilt Feelings improvement ([1]; 12 mg n=4, 3 hours, baseline 18): 9 points
BPRS Anxiety improvement ([1]; 12 mg n=4, 3 hours, baseline 25): 14 points
MADRS Suicidal Thoughts improvement ([1]; 12 mg n=4, Day 1, baseline 8): 3 points
BPRS Blunted Affect improvement ([1]; 12 mg n=4, Day 1, baseline 11): 5 points
MADRS Reduced Sleep improvement ([1]; 12 mg n=4, Day 1, baseline 12): 2 points
BPRS Emotional Withdrawal improvement ([1]; 12 mg n=4, Day 1, baseline 13): 5 points
MADRS Inner Tension improvement ([1]; 12 mg n=4, Day 1, baseline 13): 10 points
BPRS Tension improvement ([1]; 12 mg n=4, Day 1, baseline 14): 8 points
MADRS Concentration Difficulties improvement ([1]; 12 mg n=4, Day 1, baseline 16): 14 points
MADRS Inability to Feel improvement ([1]; 12 mg n=4, Day 1, baseline 16): 15 points
MADRS Lassitude improvement ([1]; 12 mg n=4, Day 1, baseline 16): 16 points
MADRS Pessimistic Thoughts improvement ([1]; 12 mg n=4, Day 1, baseline 16): 9 points
BPRS Guilt Feelings improvement ([1]; 12 mg n=4, Day 1, baseline 18): 13 points
BPRS Anxiety improvement ([1]; 12 mg n=4, Day 1, baseline 25): 19 points
MADRS Suicidal Thoughts improvement ([1]; 12 mg n=4, Day 7, baseline 8): 1 points
BPRS Blunted Affect improvement ([1]; 12 mg n=4, Day 7, baseline 11): 6 points
MADRS Reduced Sleep improvement ([1]; 12 mg n=4, Day 7, baseline 12): 6 points
BPRS Emotional Withdrawal improvement ([1]; 12 mg n=4, Day 7, baseline 13): 7 points
MADRS Inner Tension improvement ([1]; 12 mg n=4, Day 7, baseline 13): 8 points
BPRS Tension improvement ([1]; 12 mg n=4, Day 7, baseline 14): 8 points
MADRS Concentration Difficulties improvement ([1]; 12 mg n=4, Day 7, baseline 16): 13 points
MADRS Inability to Feel improvement ([1]; 12 mg n=4, Day 7, baseline 16): 15 points
MADRS Lassitude improvement ([1]; 12 mg n=4, Day 7, baseline 16): 13 points
MADRS Pessimistic Thoughts improvement ([1]; 12 mg n=4, Day 7, baseline 16): 8 points
BPRS Guilt Feelings improvement ([1]; 12 mg n=4, Day 7, baseline 18): 13 points
BPRS Anxiety improvement ([1]; 12 mg n=4, Day 7, baseline 25): 19 points
MADRS Suicidal Thoughts improvement ([1]; IDR n=8, 2 hours, baseline 11): 8 points
MADRS Inner Tension improvement ([1]; IDR n=8, 2 hours, baseline 26): 15 points
MADRS Lassitude improvement ([1]; IDR n=8, 2 hours, baseline 27): 17 points
MADRS Pessimistic Thoughts improvement ([1]; IDR n=8, 2 hours, baseline 28): 21 points
MADRS Concentration Difficulties improvement ([1]; IDR n=8, 2 hours, baseline 30): 19 points
MADRS Inability to Feel improvement ([1]; IDR n=8, 2 hours, baseline 36): 24 points
BPRS Emotional Withdrawal improvement ([1]; IDR n=8, 3 hours, baseline 13): 5 points
BPRS Blunted Affect improvement ([1]; IDR n=8, 3 hours, baseline 15): 4 points
BPRS Tension improvement ([1]; IDR n=8, 3 hours, baseline 16): 5 points
BPRS Guilt Feelings improvement ([1]; IDR n=8, 3 hours, baseline 34): 20 points
BPRS Anxiety improvement ([1]; IDR n=8, 3 hours, baseline 37): 18 points
MADRS Suicidal Thoughts improvement ([1]; IDR n=8, Day 1, baseline 11): 10 points
BPRS Emotional Withdrawal improvement ([1]; IDR n=8, Day 1, baseline 13): 5 points
BPRS Blunted Affect improvement ([1]; IDR n=8, Day 1, baseline 15): 7 points
BPRS Tension improvement ([1]; IDR n=8, Day 1, baseline 16): 5 points
MADRS Reduced Sleep improvement ([1]; IDR n=8, Day 1, baseline 25): 13 points
MADRS Inner Tension improvement ([1]; IDR n=8, Day 1, baseline 26): 20 points
MADRS Lassitude improvement ([1]; IDR n=8, Day 1, baseline 27): 22 points
MADRS Pessimistic Thoughts improvement ([1]; IDR n=8, Day 1, baseline 28): 24 points
MADRS Concentration Difficulties improvement ([1]; IDR n=8, Day 1, baseline 30): 29 points
BPRS Guilt Feelings improvement ([1]; IDR n=8, Day 1, baseline 34): 23 points
MADRS Inability to Feel improvement ([1]; IDR n=8, Day 1, baseline 36): 34 points
BPRS Anxiety improvement ([1]; IDR n=8, Day 1, baseline 37): 21 points
MADRS Suicidal Thoughts improvement ([1]; IDR n=8, Day 7, baseline 11): 8 points
BPRS Emotional Withdrawal improvement ([1]; IDR n=8, Day 7, baseline 13): 5 points
BPRS Blunted Affect improvement ([1]; IDR n=8, Day 7, baseline 15): 7 points
BPRS Tension improvement ([1]; IDR n=8, Day 7, baseline 16): 6 points
MADRS Reduced Sleep improvement ([1]; IDR n=8, Day 7, baseline 25): 16 points
MADRS Inner Tension improvement ([1]; IDR n=8, Day 7, baseline 26): 14 points
MADRS Lassitude improvement ([1]; IDR n=8, Day 7, baseline 27): 24 points
MADRS Pessimistic Thoughts improvement ([1]; IDR n=8, Day 7, baseline 28): 25 points
MADRS Concentration Difficulties improvement ([1]; IDR n=8, Day 7, baseline 30): 21 points
BPRS Guilt Feelings improvement ([1]; IDR n=8, Day 7, baseline 34): 24 points
MADRS Inability to Feel improvement ([1]; IDR n=8, Day 7, baseline 36): 30 points
BPRS Anxiety improvement ([1]; IDR n=8, Day 7, baseline 37): 20 points
SAEs ([1]; Part A 12 mg and 18 mg): No SAEs
Severity and outcome of ADRs ([1]; Part A 12 mg and 18 mg): mild and resolved spontaneously
Proportion of patients in MADRS remission ([1]; Part A 12 mg n=4, day seven): 50%
Further patients with MADRS clinical response ([1]; Part A 18 mg n=4, day seven): 25%
Proportion of patients in MADRS remission ([1]; Part A 18 mg n=4, day seven): 25%
Outcome of ADRs ([1]; Part B IDR): resolved spontaneously
SAEs ([1]; Part B IDR): No SAEs
Proportion of patients in MADRS remission (total score <=10) ([1]; Part B IDR n=8, day seven): 87.5%
Detectability in plasma ([2]; after 3 hours, 6, 12, 18 mg): no longer detectable
Accumulation upon repeated administration ([2]; within a time frame of 1 to 4 hours): No accumulation
